Experimental data from patent US20260034088A1, “SULFOPROPANOIC ACID DERIVATIVES FOR TREATING NEURODEGENERATIVE DISORDERS” (Alzheon, Inc., priority 2018, published 2026).
Values joined by “and” are separate entries in the source; they are usually repeats but may differ in a detail not shown here. Equal values may be shown once.

Tests used:
[1] = target: T1, recombinant human Aβ42 peptide (Homo sapiens, UniProt P05067); experiment: Ion mobility mass spectrometry (IMS MS) anti-Aβ42 oligomer activity; type: biochemical; details: for inhibition of formation of Aβ42 oligomers: after 24 hours in vitro
T1 construct: recombinant human Aβ42 peptide; purchased BioLegend 843801
Procedure: The conditions used for mass spectrometry, using a Waters Synapt G2-S, were as follows: positive polarity in sensitivity mode, capillary=2.5 kV, nebulizer=2 mbar, source temperature=80° C., desolvation temperature=60° C., sample cone setting=35 V, source offset setting=60 V, and mass range=500 to 4000 m/z. These conditions were maintained throughout the study to ensure consistency of the data and to avoid influencing the detection of oligomers due to preferential ionization conditions.
Samples were directly infused into the mass spectrometer at a flow rate of 10 μL/min using a Protea PM-1000 Syringe Pump and Hamilton 1 mL Syringe. The data acquisition of the amyloid peptide was performed using a Waters Synapt G2-S quadrupole time of flight mass spectrometer (Q-TOF MS) with traveling wave ion mobility (Waters Corp., Milford, MA). The data were acquired using the systems sensitivity mode to allow for the detection of the less abundant oligomers. Samples were infused at room temperature. The IMS MS studies were conducted at Protea, Inc. (Morgantown, WV).
1 mg of recombinant human Aβ42 peptide from BioLegend (99% purity, cat #843801) was reconstituted in 200 μL of Fisher Optima LC/MS grade water (cat #W6-1) and vortexed vigorously for 2 minutes to solubilize the peptide creating a 5 mg/mL solution. Samples were then diluted to a final concentration of 22 pmol/μL prior to incubation. The sample mixtures were then incubated at room temperature for 0, 4 and 24 hours. After the acquisition of incubated samples was completed, the raw data were analyzed using the Waters MassLynx v2.4 suite with DriftScover v2.7 to visualize drift times for the peptide.
Aβ42 species characterization using IMS MS was performed by direct infusion at 22 pmol/μL in water. The peptide was prepared in water to maintain the native state conformation of the peptide and ion mobility data acquisition was performed to detect and characterize the conformational changes of the native state monomer and any oligomers that may have formed during the incubation.
The data acquisition for Aβ42 peptide was performed using a Waters Synapt G2-S quadrupole time of flight mass spectrometer (Q-TOF MS) with traveling wave ion mobility (Waters Corp., Milford, MA). The data were acquired using the systems sensitivity mode to allow for the detection of the less abundant oligomers. Samples were infused at room temperature as above.
1 mg of 3-SPA was reconstituted in 1 mL of Fisher Optima LC/MS grade water (cat #W6-1) and vortexed vigorously for 2 minutes until completely dissolved. The sample was then diluted to create 220 pmol/μL, and […] solutions to perform a 100-fold, and 1,000-fold molar excess for the binding experiments with Aβ42 peptide. […]

[2] = Brain penetration of oral 3-SPA in male SD rats (brain, CSF, plasma); type: in vivo, Sprague-Dawley rats; details: oral 30 mg/kg
Procedure: A separate group of animals was dosed orally at 30 mg/kg and terminal brain, CSF and plasma samples were collected at 1, 2, 6, and 24 hr (3 animals for each time point) for bioanalyses of 3-SPA in brain and CSF, and to estimate brain penetration relative to plasma concentrations. The in-life study was performed at Agilux Laboratories (Worcester, MA) following quality standards in line with Good Laboratory Practice. Bioanalyses of rat plasma, CSF and brain was preformed using LC-MS/MS at Nextcea. Prior to processing rat brains for bioanalysis, the brains were perfused to remove pooled blood. Pharmacokinetic data analyses were conducted using Winnonlin Professional v5.0.1 (Pharsight, Mountain View, CA).
The plasma concentration of a single dose of 3-SPA, dissolved in saline as a clear solution, administered orally and intravenously to rats at a dose level of 30 mg/kg and 10 mg/kg, respectively, are shown in FIG. 9. Brain, CSF and corresponding plasma levels after a single oral dose of dose of 30 mg/kg of 3-SPA at 1, 2, 6, and 24 hr are shown in FIG. 10. Mean PK curves were used for calculation of pharmacokinetic parameters.

T1 sequence (P05067 672-713 limits assumed): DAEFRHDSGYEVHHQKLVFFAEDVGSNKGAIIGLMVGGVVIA

Row | Brain/Plasma (AUC %) [2] | Aβ42 oligomer species detected (not inhibited) ([1]; 4 hr incubation, Aβ42:compound 1:1000) | Aβ42 oligomer species detected (not inhibited) ([1]; 24 hours incubation, 1,000-fold excess of compound) | SMILES | inhibition of formation of Aβ42 oligomers [1]
1 |  |  |  | NCCCS(=O)(=O)O [Tramiprosate, 3-amino-1-propanesulfonic acid, reference compound] | complete inhibition
2 | 25% and 25.3% | dimers, trimers and pentamers | Only pentamers were detected | O=C(O)CCS(=O)(=O)O [Compound 3-SPA, 3-sulfopropanoic acid] | Near complete prevention of formation of Aβ42 oligomers except for pentamers
